Reference: patent US8633232B2, “Compounds, compositions and methods of using same for modulating uric acid levels” (Ardea Biosciences, Inc., priority 2008, dated 2014)

Target: T1, hURAT1 Transporter (Homo sapiens, UniProt Q96S37)
T1 construct: Full-length human URAT1 gene (SLC22A12) was subcloned from plasmid pCMV6-XL5
T1 sequence (Q96S37 1-553): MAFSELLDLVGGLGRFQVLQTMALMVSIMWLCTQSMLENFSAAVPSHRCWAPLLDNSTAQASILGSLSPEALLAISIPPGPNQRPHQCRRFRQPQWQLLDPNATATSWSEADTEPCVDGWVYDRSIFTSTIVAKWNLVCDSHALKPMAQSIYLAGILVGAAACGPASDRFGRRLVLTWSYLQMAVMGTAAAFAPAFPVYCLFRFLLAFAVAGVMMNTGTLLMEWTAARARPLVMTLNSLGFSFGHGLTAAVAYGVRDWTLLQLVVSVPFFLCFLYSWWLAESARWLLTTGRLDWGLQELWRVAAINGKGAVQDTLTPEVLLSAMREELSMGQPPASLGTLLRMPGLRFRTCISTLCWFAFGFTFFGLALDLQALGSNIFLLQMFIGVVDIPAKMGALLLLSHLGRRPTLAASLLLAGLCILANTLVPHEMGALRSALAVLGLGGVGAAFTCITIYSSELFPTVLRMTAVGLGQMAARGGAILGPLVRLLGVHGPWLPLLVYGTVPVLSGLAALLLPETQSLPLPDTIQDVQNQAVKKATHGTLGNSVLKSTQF
Assay: Uric Acid Uptake Assay
Assay type: cell-based
Settings: HEK293/urat1 cells; C14 Uric Acid 40 μM; 10 minutes at room temperature
Excerpt: Creation of Stable Cell Lines Expressing hURAT1 Transporter: Full-length human URAT1 gene (SLC22A12) was subcloned from plasmid pCMV6-XL5 (Origene) into eukaryotic expression plasmid pCMV6/Neo (Origene) using Not I restriction sites. Gene sequencing confirmed the sequence of hURAT1 as outlined in Genbank (Accession #NM_144585.2). HEK293 human embryonic kidney cells (ATCC#CRL-1573) were propagated in EMEM tissue culture medium as described by ATCC in an atmosphere of 5% CO2 and 95% air. Transfections of HEK293 cells with the pCMV6/Neo/URAT1 construct were performed using L2000 transfection reagent (Invitrogen) as described by the manufacturer. After 24 h the transfected cells were split into 10 cm tissue culture plates and grown for 1 day after which the medium was replaced with fresh growth medium containing G418 (Gibco) at 0.5 mg/ml final concentration. Drug-resistant colonies were selected after approximately 8 days and then tested for ^14C-uric acid transport activity. The HEK293/urat1 cells are plated on Poly-D-Lysine Coated 96-well Plates at a density of 75,000 cells per well.
Cells were grown overnight (20-26 hours) at 37° C. in an incubator. Plates were allowed to come to room temperature and media was washed out with one wash of […] of Wash Buffer (125 mM Na Gluconate, 10 mM Hepes ph 7.3). Compound or vehicle is added in assay buffer with C14 Uric Acid for a final concentration of 40 μM Uric Acid with a specific activity of 54 mCi/mmol. Assay Buffer is 125 mM Sodium Gluconate, 4.8 mM Potassium Gluconate, 1.2 mM Potassium phosphate, monobasic, 1.2 mM magnesium sulfate, 1.3 mM Ca Gluconate, 5.6 mM Glucose, 25 mM HEPES, pH 7.3. Plates were incubated at room temperature for 10 minutes then washed 3 times with 50 μl Wash Buffer and 3 times with 250 μl Wash Buffer. Microscint 20 Scintillation Fluid was added and plates were incubated overnight at 45° C. to equilibrate. Plates are then read on the TopCount Plate Reader and an EC50 value generated. (See Enomoto et al, Nature, 2002, 417, 447-451 and Anzai et al, J. Biol. Chem., 2004, 279, 45942-45950.).
Compounds prepared as described herein, were examined according to the procedure described above and EC50 values generated. […] (N/A means data not available).

| EC50 [µM] | SMILES |
| --- | --- |
| > 30 | Cc1nnc(SCC(=O)O)n1-c1ccc(N(C)C)c2ccccc12 |
| > 30 | Cc1nnc(SCC(=O)O)n1-c1cccc2cccnc12 |
| 1 to 30 | CCOC(=O)CCCSc1nnc(N)n1-c1ccc(C2CC2)c2ccccc12 |
| 1 to 30 | Nc1nnc(SCCCC(=O)O)n1-c1ccc(C2CC2)c2ccccc12 |
| > 30 | CCOC(=O)CSc1nnc(N)n1-c1ccc(C2CC2)c2ccccc12 |
| 1 to 30 | Nc1nnc(SCC(=O)O)n1-c1ccc(C2CC2)c2ccccc12 |
| 1 to 30 | CCOC(=O)C(C)Sc1nnc(N)n1-c1ccc(C2CC2)c2ccccc12 (stereo not drawn) |
| 1 to 30 | CC(Sc1nnc(N)n1-c1ccc(C2CC2)c2ccccc12)C(=O)O (stereo not drawn) |
| > 30 | CCCSc1nnc(N)n1-c1ccc(C2CC2)c2ccccc12 |
| 1 to 30 | CCc1ccc(-n2c(CF)nnc2SCC(=O)O)c2ccccc12 |
| 1 to 30 | Cc1ccc(-n2c(SCC(=O)O)nnc2C(F)F)c2ccccc12 |
| 1 to 30 | O=C(O)CSc1nnc(C(F)F)n1-c1ccc(C2CC2)c2ccccc12 |
| > 30 | CCOC(=O)CSc1nnc(C(F)F)n1-c1c(C)cc(C)c2ccccc12 |
| 1 to 30 | Cc1cc(C)c2ccccc2c1-n1c(SCC(=O)O)nnc1C(F)F |
| 1 to 30 | O=C(O)CSc1nnc(C(F)(F)F)n1-c1cccc2ccccc12 |
| 1 to 30 | Cc1ccc(-n2c(Br)nnc2SCC(=O)O)c2ccccc12 |
| 1 to 30 | O=C(O)CSc1nnc(Br)n1-c1cccc2ccccc12 |
| 0.001 to 1 | CCc1ccc(-n2c(Br)nnc2SCC(=O)OC)c2ccccc12 |
| 0.001 to 1 | CCc1ccc(-n2c(Br)nnc2SCC(=O)O)c2ccccc12 |
| 1 to 30 | CCOC(=O)CCCSc1nnc(Br)n1-c1ccc(C2CC2)c2ccccc12 |

| EC50 [µM] | SMILES |
| --- | --- |
| 0.001 to 1 | CCOC(=O)CSc1nnc(Br)n1-c1ccc(C2CC2)c2ccccc12 |
| 0.001 to 1 | O=C(O)CCCSc1nnc(Br)n1-c1ccc(C2CC2)c2ccccc12 |
| 1 to 30 | COc1ccc2c(C3CC3)ccc(-n3c(Br)nnc3SCC(=O)O)c2c1 |
| > 30 | O=C(O)CSc1nnc(Br)n1-c1cccc2c(OCC3CC3)cccc12 |
| > 30 | CC(C)(C)c1ccc(-n2c(Br)nnc2SCC(=O)O)c(Cl)c1 |
| 1 to 30 | COc1ccc2c(Br)ccc(-n3c(Br)nnc3SCC(=O)O)c2c1 |
| 1 to 30 | CCc1ccc(-n2c(Br)nnc2SCC(=O)O)c2cc(OC)ccc12 |
| 1 to 30 | CCOC(=O)C(C)Sc1nnc(Br)n1-c1ccc(C2CC2)c2ccccc12 (stereo not drawn) |
| 0.001 to 1 | CC(Sc1nnc(Br)n1-c1ccc(C2CC2)c2ccccc12)C(=O)O (stereo not drawn) |
| 1 to 30 | CCCSc1nnc(Br)n1-c1ccc(C2CC2)c2ccccc12 |
| > 30 | CC(C)(C)OC(=O)CSc1nnc(Br)n1-c1ccc(C2CC2)c2ccccc12 |
| 0.001 to 1 | CCOC(=O)C(C)(C)Sc1nnc(Br)n1-c1ccc(CC)c2ccccc12 |
| 1 to 30 | O=C(O)CSc1nnc(-c2ccccc2)n1-c1ccc(C2CC2)c2ccccc12 |
| 1 to 30 | CCOC(=O)CSc1nnc(-c2ccccc2)n1-c1ccc(C2CC2)c2ccccc12 |
| 0.001 to 1 | CCc1ccc(-n2c(Br)nnc2SC(C)(C)C(=O)O)c2ccccc12 [2-(5-bromo-4-(4-ethylnaphthalen-1-yl)-4H-1,2,4-triazol-3-ylthio)-2-methylpropanoic acid] |
| 1 to 30 | CCc1ccc(-n2c(SCC(=O)O)nnc2C(F)F)c2ccccc12 [Example 4, 2-(5-(difluoromethyl)-4-(4-ethylnaphthalen-1-yl)-4H-1,2,4-triazol-3-ylthio)acetic acid] |
| > 30 | CC(C)(Sc1nnc(N)n1-c1ccc(C2CC2)c2ccccc12)C(=O)O [Example 5, 2-(5-amino-4-(4-cyclopropylnaphthalen-1-yl)-4H-1,2,4-triazol-3-ylthio)-2-methylpropanoic acid] |
| 0.001 to 1 | CC(C)(Sc1nnc(C(F)(F)F)n1-c1ccc(C2CC2)c2ccccc12)C(=O)O [Example 9, 2-(4-(4-Cyclopropylnaphthalen-1-yl)-5-(trifluoromethyl)-4H-1,2,4-triazol-3-ylthio)-2-methylpropanoic acid] |
| > 30 | CC(C)(C)OC(=O)C(C)(C)Sc1nnc(Br)n1-c1ccc(C2CC2)c2ccccc12 [Example 101, tert-Butyl 2-(5-bromo-4-(4-cyclopropylnaphthalen-1-yl)-4H-1,2,4-triazol-3-ylthio)-2-methylpropanoate] |
| 1 to 30 | COC(=O)CSc1nnc(Br)n1-c1ccc(C2CC2)c2ccccc12 [Example 102, Methyl 2-(5-bromo-4-(4-cyclopropylnaphthalen-1-yl)-4H-1,2,4-triazol-3-ylthio)acetate] |

Further lines, the compound ahead of its results:

| SMILES | EC50 [µM] |
| --- | --- |
| Cc1nnc(SCC(=O)O)n1Cc1ccccc1 | > 30 |
| Cc1nnc(SCC(=O)O)n1-c1ccc2c(c1)OCCO2 | > 30 |
| CCOC(=O)CSc1nncn1-c1ccc(C)c2c1CCCN2 | > 30 |
| CCOC(=O)CSc1nncn1-c1c(C)cc(C)c2c1CCCC2 | 1 to 30 |
| CCOC(=O)CSc1nncn1-c1ccc(C)c2c1CCCC2 | 1 to 30 |
| Cc1cc(C)c(-n2cnnc2SCC(=O)O)c2c1CCCC2 | > 30 |
| Cc1ccc(-n2cnnc2SCC(=O)O)c2c1CCCC2 | > 30 |
| Cc1ccc(-n2cnnc2SCC(=O)O)c2c1NCCC2 | > 30 |
| Cc1ccc(-n2c(C)nnc2SCC(=O)O)cc1C | > 30 |
| Cc1nnc(SCC(=O)O)n1-c1ccccc1Cl | > 30 |
| Cc1nnc(SCC(=O)O)n1-c1ccc(Oc2ccccc2)cc1 | > 30 |
| Cc1nnc(SCC(=O)O)n1-c1ccc(C(F)(F)F)cc1 | > 30 |
| Cc1ccc(-n2c(C)nnc2SCC(=O)O)c(C)c1 | > 30 |
| COc1ccccc1-n1c(C)nnc1SCC(=O)O | > 30 |
| Cc1cccc(C)c1-n1c(C)nnc1SCC(=O)O | > 30 |
| Cc1nnc(SCC(=O)O)n1-c1cc(Cl)ccc1Cl | > 30 |
| Cc1nnc(SCC(=O)O)n1-c1ccc(C(=O)O)cc1 | > 30 |
| Cc1nnc(SCC(=O)O)n1-c1cccc(Cl)c1 | > 30 |

| SMILES | EC50 [µM] |
| --- | --- |
| Cc1nnc(SCC(=O)O)n1-c1ccccc1F | > 30 |
| Cc1nnc(SCC(=O)O)n1-c1ccccc1C(F)(F)F | > 30 |
| Cc1ccc(-n2c(SCC(N)=O)nnc2C(F)F)c2c1CCCC2 | 1 to 30 |
| CC(C)(C)c1ccc(-n2c(SCC(=O)O)nnc2C(F)F)c(Cl)c1 | > 30 |
| COc1ccc(Cl)c(-n2c(SCC(=O)O)nnc2C(F)F)c1 | > 30 |
| CCOC(=O)CSc1nnc(C(F)F)n1-c1ccc(OC)c2c1CCCC2 | > 30 |
| COc1ccc(-n2c(SCC(=O)O)nnc2C(F)F)c2c1CCCC2 | 1 to 30 |
| CCOC(=O)CSc1nnc(C(F)F)n1-c1ccc(C)c2c1CCCN2 | > 30 |
| Cc1ccc(-n2c(SCC(=O)O)nnc2C(F)F)c2c1NCCC2 | > 30 |
| CCOC(=O)CSc1nnc(C(F)(F)F)n1-c1ccc(OC)c2c1CCCC2 | > 30 |
| CCOC(=O)CSc1nnc(C(F)(F)F)n1-c1ccc(C)c2c1CCCC2 | 1 to 30 |
| Cc1ccc(-n2c(SCC(=O)O)nnc2C(F)(F)F)c2c1CCCC2 | 0.001 to 1 |
| COc1ccc(-n2c(SCC(=O)O)nnc2C(F)(F)F)c2c1CCCC2 | 1 to 30 |
| COc1ccc(Cl)c(-n2c(Br)nnc2SCC(=O)O)c1 | > 30 |
| O=C(O)CSc1nnc(Br)n1-c1cc(C(F)(F)F)ccc1Cl | > 30 |
| Cc1cc(C)c(-n2c(SCC(=O)O)nnc2C(F)(F)F)c2c1CCCC2 [Example 1A, 2-(4-(2,4-Dimethyl-5,6,7,8-tetrahydronaphthalen-1-yl)-5-(trifluoromethyl)-4H-1,2,4-triazol-3-ylthio)acetic acid] | 1 to 30 |
| Cc1ccc2c(C)ccc(-n3cnnc3SCC(=O)O)c2c1 [Example 2, 2-(4-(4,7-Dimethylnaphthalen-1-yl)-4H-1,2,4-triazol-3-ylthio)acetic acid] | > 30 |
